{
  "source": "patent US20130172318A1",
  "about": "“ANTI-INFLAMMATORY AGENTS” (priority 2010, published 2013)",
  "data": [
    {"test_system": "MCP-1 induced migration of THP-1 cells", "test": "Inhibition of MCP-1 induced leukocyte migration (transwell, THP-1 cells)", "assay_type": "cell-based", "conditions": "Homo sapiens, MCP-1 25 ng/ml, 2 hours 37° C., read-out: ED50 (concentration required to reduce the MCP-1-induced migration by 50%)", "procedure": "In principle, this assay consists of two chambers separated by a porous membrane. The chemoattractant is placed in the lower compartment and the cells are placed in the upper compartment. After incubation for a period at 37° C. the cells move towards the chemoattractant, and the number of cells in the lower compartment is proportional to the chemoattractant activity (relative to a series of controls).\nThe THP-1 cell line (European Cell culture Collection) were used as the leukocyte cell population.\nThe following procedure is used for testing the invention compounds for MCP-1 induced leukocyte migration:\nFirst, the cell suspension to be placed in the upper compartment is prepared. The THP-1 cells are pelleted by centrifugation (770×g; 4 mins) and washed with Geys Balanced Salt Solution with 1 mg/ml BSA (GBSS+BSA). This wash is then repeated, and the cells repelleted before being resuspended in a small volume of GBSS+BSA for counting, for example using a standard haemocytometer.\nThe volume of GBSS+BSA is then adjusted depending on the number of cells present so that the cells are at final density of 4.45×10^6 cells per ml of GBSS+BSA. This ensures that there are […] THP-1 cells in each 25 μl of the solution that will be placed in the upper chamber of the plate.\nTo test a single compound for its ability to inhibit MCP-1 induced migration, it is necessary to prepare two lots of cells. The suspension of THP-1 cells at 4.45×10^6 cells/ml is divided into two pots. To one pot the inhibitor under test is added at an appropriate final concentration, in an appropriate vehicle (for example at 1 μM in not more than 1% DMSO). To the second pot an equal volume of GBSS+BSA plus vehicle as appropriate (e.g. not more than 1% DMSO) is added to act as a control.\nNext, the chemoattractant solution to be placed in the lower compartment is prepared. MCP-1 is diluted in GBSS+BSA to give a final concentration of 25 ng/ml. This is divided into two pots, as for the cell suspension. To one pot, the test compound is added to the same final concentration as was added to the cell suspension, while to the other pot an equal volume of GBSS+BSA plus vehicle as appropriate (e.g. not more than 1% DMSO) is added.\nNote that the volume of liquid that needs to be added to make the addition of the text compound needs to be taken into account, when establishing the final concentration of MCP-1 in the solution for the lower compartment and the final concentration of cells in the upper compartment.\nOnce the chemoattractant solutions for the lower wells and cell solutions for the upper chambers have been prepared, the migration chamber should be assembled. Place 29 μl of the appropriate chemoattractant solution into the lower well of the chamber. Assays should be performed with at least triplicate determinations of each condition. Once all the lower chambers have been filled, apply the prous membrane to the chamber in accordance with the manufacturer's instructions. Finally, apply 25 μl of the appropriate cell solution to each upper chamber. A plastic lid is placed over the entire apparatus to prevent evaporation.\nThe assembled chamber is incubated at 37° C., 5% CO2, for 2 hours. A suspension of cells in GBSS+BSA is also incubated under identical conditions in a tube: these cells will be used to construct a standard curve for determining the number of cells that have migrated to the lower chamber under each condition.\nAt the end of the incubation, the liquid cell suspension is gently removed from the upper chamber, and 20 μl of ice-cold 20 mM EDTA in PBS is added to the upper chamber, and the apparatus is incubated at 4° C. for 15 mins. This procedure causes any cells adhering to the underside of the membrane to fall into the lower chamber.\nAfter this incubation the filter is carefully flushed with GBSS+BSA to wash off the EDTA, and then the filter is removed. […]", "units": {"EC50": "µM"}, "values": [
      {"compound": "O=C(NC1CCCNC1=O)c1ccccc1", "note": "(stereo not shown) [Reference Example 1, 3-(Benzoylamino)tetrahydropyridin-2-one]", "EC50": "≤ 0.1"},
      {"compound": "O=C(NC1CCCCNC1=O)c1ccccc1", "note": "(stereo not shown) [Reference Example 2, 3-(Benzoylamino)azepan-2-one]", "EC50": "≤ 0.1"},
      {"compound": "Cc1ccc(C(=O)NC2CCCNC2=O)cc1", "note": "(stereo not shown) [Reference Example 3, 3-(4′-Methylbenzoylamino)tetrahydropyridin-2-one]", "EC50": "≤ 0.1"},
      {"compound": "Cc1ccc(C(=O)NC2CCCCNC2=O)cc1", "note": "(stereo not shown) [Reference Example 4, 3-(4′-Methylbenzoylamino)azepan-2-one]", "EC50": "≤ 0.1"},
      {"compound": "O=C(NC1CCCNC1=O)c1ccc(Cl)cc1", "note": "(stereo not shown) [Reference Example 5, 3-(4′-Chlorobenzoylamino)tetrahydropyridin-2-one]", "EC50": "≤ 0.1"},
      {"compound": "O=C(NC1CCCCNC1=O)c1ccc(Cl)cc1", "note": "(stereo not shown) [Reference Example 6, 3-(4′-Chlorobenzoylamino)azepan-2-one]", "EC50": "≤ 0.1"},
      {"compound": "COc1ccc(C(=O)NC2CCCNC2=O)cc1", "note": "(stereo not shown) [Reference Example 7, 3-(4′-Methoxybenzoylamino)tetrahydropyridin-2-one]", "EC50": "≤ 0.1"},
      {"compound": "COc1ccc(C(=O)NC2CCCCNC2=O)cc1", "note": "(stereo not shown) [Reference Example 8, 3-(4′-Methoxybenzoylamino)azepan-2-one]", "EC50": "≤ 0.1"},
      {"compound": "O=C(NC1CCCNC1=O)c1ccc(F)cc1", "note": "(stereo not shown) [Reference Example 9, 3-(4′-Fluorobenzoylamino)tetrahydropyridin-2-one]", "EC50": "≤ 0.1"},
      {"compound": "O=C(NC1CCCCNC1=O)c1ccc(F)cc1", "note": "(stereo not shown) [Reference Example 10, 3-(4′-Fluorobenzoylamino)azepan-2-one]", "EC50": "≤ 0.1"},
      {"compound": "Cc1cc(C)cc(C(=O)NC2CCCNC2=O)c1", "note": "(stereo not shown) [Reference Example 13, 3-(3′,5′-Dimethylbenzoylamino)tetrahydropyridin-2-one]", "EC50": "≤ 0.1"},
      {"compound": "Cc1cc(C)cc(C(=O)NC2CCCCNC2=O)c1", "note": "(stereo not shown) [Reference Example 14, 3-(3′,5′-Dimethylbenzoylamino)azepan-2-one]", "EC50": "≤ 0.1"}
    ]},
    {"test_system": "not given", "test": "not given", "conditions": "not given", "units": {"melting point": "°C"}, "values": [
      {"compound": "O=C(N[C@H]1CCCNC1=O)c1cccc(F)c1", "note": "[Example 1, (S)-3-Fluoro-N-(2-oxopiperidin-3-yl)benzamide]", "melting point": "164 to 166"},
      {"compound": "O=C(N[C@H]1CCCNC1=O)c1ccccc1F", "note": "[Example 2, (S)-2-Fluoro-N-(2-oxopiperidin-3-yl)benzamide]", "melting point": "166 to 168"},
      {"compound": "O=C(N[C@H]1CCCNC1=O)c1ccc(C(F)(F)F)cc1", "note": "[Example 4, (S)—N-(2-Oxopiperidin-3-yl)-4-(trifluoromethyl)benzamide]", "melting point": "212 to 214"},
      {"compound": "O=C(N[C@H]1CCCNC1=O)c1cccc(C(F)(F)F)c1", "note": "[Example 5, (S)—N-(2-Oxopiperidin-3-yl)-3-(trifluoromethyl)benzamide]", "melting point": "148 to 150"},
      {"compound": "O=C(N[C@H]1CCCNC1=O)c1ccccc1C(F)(F)F", "note": "[Example 6, (S)—N-(2-Oxopiperidin-3-yl)-2-(trifluoromethyl)benzamide]", "melting point": "155 to 156"},
      {"compound": "O=C(N[C@H]1CCCNC1=O)c1cccc(F)c1F", "note": "[Example 7, (S)-2,3-difluoro-N-(2-oxopiperidin-3-yl)benzamide]", "melting point": "160 to 162"},
      {"compound": "O=C(N[C@H]1CCCNC1=O)c1ccc(F)cc1F", "note": "[Example 8, (S)-2,4-difluoro-N-(2-oxopiperidin-3-yl)benzamide]", "melting point": "140 to 141"},
      {"compound": "O=C(N[C@H]1CCCNC1=O)c1cc(F)ccc1F", "note": "[Example 9, (S)-2,5-difluoro-N-(2-oxopiperidin-3-yl)benzamide]", "melting point": "140 to 142"},
      {"compound": "O=C(N[C@H]1CCCNC1=O)c1c(F)cccc1F", "note": "[Example 10, (S)-2,6-difluoro-N-(2-oxopiperidin-3-yl)benzamide]", "melting point": "190 to 194"},
      {"compound": "O=C(N[C@H]1CCCNC1=O)c1ccc(F)c(F)c1", "note": "[Example 11, (S)-3,4-difluoro-N-(2-oxopiperidin-3-yl)benzamide]", "melting point": "202 to 204"},
      {"compound": "O=C(N[C@H]1CCCNC1=O)c1cc(F)cc(F)c1", "note": "[Example 12, (S)-3,5-difluoro-N-(2-oxopiperidin-3-yl)benzamide]", "melting point": "198 to 199"},
      {"compound": "CCc1ccc(C(=O)N[C@H]2CCCCNC2=O)cc1", "note": "[Example 14, (S)-3-(4′-Ethylbenzoylamino)-azepan-2-one]", "melting point": "218 to 219"},
      {"compound": "CCc1ccc(C(=O)N[C@H]2CCCNC2=O)cc1", "note": "[Example 15, (S)-3-(4′-Ethylbenzoylamino)-tetrahydropyridin-2-one]", "melting point": "112 to 113"},
      {"compound": "CCCCc1ccc(C(=O)N[C@H]2CCCCNC2=O)cc1", "note": "[Example 16, (S)-3-(4′-Butylbenzoylamino)-azepan-2-one]", "melting point": "183 to 184"},
      {"compound": "CCCCc1ccc(C(=O)N[C@H]2CCCNC2=O)cc1", "note": "[Example 17, (S)-3-(4′-Butylbenzoylamino)-tetrahydropyridin-2-one]", "melting point": "117 to 118"},
      {"compound": "CCCCc1ccc(C(=O)N[C@@H]2CCCNC2=O)cc1", "note": "[Example 18, (R)-3-(4′-Butylbenzoylamino)-tetrahydropyridin-2-one]", "melting point": "116 to 117"},
      {"compound": "CC(C)(C)c1ccc(C(=O)N[C@H]2CCCCNC2=O)cc1", "note": "[Example 19, (S)-3-(4′-tert-Butylbenzoylamino)-azepan-2-one]", "melting point": "204 to 205"},
      {"compound": "CC(C)(C)c1ccc(C(=O)N[C@H]2CCCNC2=O)cc1", "note": "[Example 20, (S)-3-(4′-tert-Butylbenzoylamino)-tetrahydropyridin-2-one]", "melting point": "195 to 196"},
      {"compound": "CC(C)(C)c1ccc(C(=O)N[C@@H]2CCCNC2=O)cc1", "note": "[Example 21, (R)-3-(4′-tert-Butylbenzoylamino)-tetrahydropyridin-2-one]", "melting point": "193 to 194"},
      {"compound": "CCCCCCc1ccc(C(=O)N[C@H]2CCCCNC2=O)cc1", "note": "[Example 22, (S)-3-(4′-Hexylbenzoylamino)-azepan-2-one]", "melting point": "167 to 168"},
      {"compound": "CCCCCCc1ccc(C(=O)N[C@H]2CCCNC2=O)cc1", "note": "[Example 23, (S)-3-(4′-Hexylbenzoylamino)-tetrahydropyridin-2-one]", "melting point": "118 to 119"},
      {"compound": "CCCCCCc1ccc(C(=O)N[C@@H]2CCCNC2=O)cc1", "note": "[Example 24, (R)-3-(4′-Hexylbenzoylamino)-tetrahydropyridin-2-one]", "melting point": "117 to 118"},
      {"compound": "CCCCCCCCc1ccc(C(=O)N[C@H]2CCCCNC2=O)cc1", "note": "[Example 25, (S)-3-(4′-Octylbenzoylamino)-azepan-2-one]", "melting point": "159 to 160"},
      {"compound": "CCCCCCCCc1ccc(C(=O)N[C@H]2CCCNC2=O)cc1", "note": "[Example 26, (S)-3-(4′-Octylbenzoylamino)-tetrahydropyridin-2-one]", "melting point": "122 to 123"},
      {"compound": "CCCCCCCCc1ccc(C(=O)N[C@@H]2CCCNC2=O)cc1", "note": "[Example 27, (R)-3-(4′-Octylbenzoylamino)-tetrahydropyridin-2-one]", "melting point": "122 to 123"}
    ]},
    {"test_system": "not given", "test": "not given", "conditions": "after intravenous injection; cited from earlier work", "values": [
      {"compound": "c(DCys-DGln-DIle-DTrp-DLys-DGln-DLys-DPro-DAsp-DLeu-DCys)-NH2 [NR58-3.14.3]", "half-life period of clearance from blood plasma": "less than 30 minutes"}
    ]},
    {"test_system": "not given", "test": "not given", "conditions": "in vivo, po; cited from earlier work", "values": [
      {"compound": "c(DCys-DGln-DIle-DTrp-DLys-DGln-DLys-DPro-DAsp-DLeu-DCys)-NH2 [NR58-3.14.3]", "oral bioavailability": "not orally bioavailable"}
    ]},
    {"test_system": "not given", "test": "not given", "conditions": "37° C.; cited from earlier work", "values": [
      {"compound": "(S)-3-(undec-10-enoyl)-tetrahydropyridin-2-one", "time completely stable in human serum": "at least 7 days"}
    ]},
    {"test_system": "chemokine-induced migration", "test": "not given", "conditions": "cited from earlier work", "values": [
      {"compound": "CCCCCCCCCC(C)(C)CC(=O)NC1CCCCNC1=O", "note": "(stereo not shown) [3′3′-dimethyldodecanoyl-3-aminocaprolactam]", "BSCI potency/activity in words (comparative)": "no more potent"},
      {"compound": "CCCCCCCCCC=CC(=O)NC1CCCCNC1=O", "note": "(stereo not shown) [dodec-2′,3′-enoyl-3-aminocaprolactam]", "BSCI potency/activity in words (comparative)": "markedly lower potency"},
      {"compound": "(S)-3-(undec-10-enoyl)-tetrahydropyridin-2-one", "BSCI potency/activity in words (comparative)": "considerably reduced potency"}
    ]}
  ]
}
